Measurements published in patent publication US9949945B2, “3′ equatorial-fluorine-substituted neuraminidase inhibitor compounds, compositions and methods for the use thereof as anti-virals” (THE UNIVERSITY OF BRITISH COLUMBIA, priority 2012, dated 2018).
Like-named read-outs stand apart in the source and are kept apart here.

Experiments:
[1] = target: B/Perth wt (B/Perth/211/01) NA (Influenza B virus, UniProt Q3S340); format: biochemical
[2] = system: B/Perth (B/Perth/211/01); experiment: microbe, parasite or virus in culture; format: cell-based; conditions: read-out: IC50 in the plaque size reduction assay, B/Perth
[3] = system: A/Fukui H3N2; experiment: microbe, parasite or virus in culture; format: cell-based; conditions: read-out: IC50 in the plaque size reduction assay, A/Fukui H3N2
[4] = target: Brisbane H1N1 (A/Brisbane/59/07) neuraminidase (Influenza A virus, UniProt D5F1R0)
[5] = target: California H1N1 (A/California/07/09) neuraminidase (Influenza A virus, UniProt C3W6G3)
[6] = system: A/Mississippi H1N1 (A/Mississippi/3/01); experiment: microbe, parasite or virus in culture; format: cell-based; conditions: read-out: IC50 in the plaque size reduction assay, A/Mississippi H1N1
[7] = target: Human Neu2 (Homo sapiens, UniProt Q9Y3R4); experiment: Time-dependent inactivation of human Neu2; format: biochemical; conditions: 1 mM inactivator, 27° C., pH 5.6
Chain of Human Neu2 (Q9Y3R4 whole entry): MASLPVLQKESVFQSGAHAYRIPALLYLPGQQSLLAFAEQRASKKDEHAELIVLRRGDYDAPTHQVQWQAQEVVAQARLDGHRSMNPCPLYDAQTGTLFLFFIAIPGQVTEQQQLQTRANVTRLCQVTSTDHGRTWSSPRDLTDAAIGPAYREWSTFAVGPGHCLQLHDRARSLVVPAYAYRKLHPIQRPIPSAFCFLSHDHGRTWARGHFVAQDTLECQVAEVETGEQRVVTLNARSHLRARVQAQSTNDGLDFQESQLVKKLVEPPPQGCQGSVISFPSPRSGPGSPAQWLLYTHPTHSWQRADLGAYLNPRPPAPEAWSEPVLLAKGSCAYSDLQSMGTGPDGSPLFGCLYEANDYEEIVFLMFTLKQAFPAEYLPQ
Method: All experiments were carried out in a 100 mM Na2HPO4/50 mM Citric acid buffer, pH 5.6. […] The data were analyzed using the program GraFit 4.0 (Erithacus software) (R. Leatherbarrow, Erithacus Software Ltd., 4th Edition, Staines, UK, (1990)). […] Residual enzyme activity was determined at appropriate time intervals by the addition of an aliquot of the inactivation mixture to an assay buffer solution containing 8 mM 4-trifluoromethylumbelliferyl sialic acid (CF3MUSA). The initial linear increase in absorbance at 400 nm was used as a measure of the enzyme activity. These initial rates at each time point were plotted as a function of time to obtain time-dependent exponential decay curves from which ki obs could be obtained using the equation: (rate)t=(rate)t=0e^([…])+offset IC50 Enzyme Inhibition Assays

[8] = target: Hong Kong H3N2 (A/HongKong/01/68) neuraminidase (Influenza A virus, UniProt Q91MA2); experiment: biochemical
[9] = mouse, in vivo
[10] = in vivo; conditions: Balb/c, mouse, 1 mg/kg
[11] = target: B/Florida wt (B/Florida/4/2006) NA (Influenza B virus, UniProt J7JZT1); format: biochemical
[12] = target: A/Fukui H3N2 wt NA (Influenza A virus, UniProt A0A0F6NYK2); format: biochemical; conditions: read-out: IC50 in the enzyme inhibition assay, A/Fukui H3N2
[13] = target: Sol Isl sH1N1 wt (A/Solomon Islands/3/2006) NA (Influenza A virus, UniProt B4URD9); format: biochemical
[14] = target: sH1N1/01 wt (A/Mississippi/3/01 H1N1) NA (Influenza A virus, UniProt Q3M0T6); format: biochemical
[15] = read-out: IC50 in the enzyme inhibition assay, B/Perth

Row | Molecule | IC50 [1, 15] [nM] | IC50 ([2]; Influenza B virus, MDCK) [nM] | IC50 ([3]; Influenza A virus, H3N2, MDCK) [nM] | khyd [4] | t1/2 (inac) [4] | t1/2 (reac) [4] | Ki [5] [nM] | khyd [5] | t1/2 (inac) [5] | t1/2 (reac) [5] | IC50 ([6]; Influenza A virus, H1N1, MDCK) [nM] | Ki [8] [nM] | further results
1 | CC(=O)NC1C(N)C(F)C(F)(C(=O)O)OC1[C@H](O)[C@H](O)CO (stereo in doubt) [FeqAmDFSA, 5-Acetamido-2,4,5-trideoxy-4-amino-2α, 3β-difluoro-α-D-erythro-L-gluco-nonulo-pyranosonate] | 5.4 | 10 to 100 | 1000 | 0.0027 0.0059 0.0150 0.0140 0.0045 min^−1 | 0.9 0.2 0.4 0.8 — min | 256 117 46 49 153 min | 370 | 0.0027 0.0059 0.0150 0.0140 0.0045 min^−1 | 0.9 0.2 0.4 0.8 — min | 256 117 46 49 153 min | 100 | – | –
2 | CC(=O)NC1C(NC(=N)N)C(F)C(F)(C(=O)O)OC1[C@H](O)[C@H](O)CO (stereo in doubt) [FeqGuDFSA, 5-Acetamido-2,4,5-trideoxy-2α, 3β-difluoro-4-guanidino-α-D-erythro-L-gluco-nonulopyranosonate] | 4.5 | 1 | 10 | 0.0005 0.0015 0.001 0.0019 0.0005 min^−1 | 0.3 0.5 0.9 0.5 0.8 min | 1380 460 690 363 1380 min | 100 | 0.0005 0.0015 0.001 0.0019 0.0005 min^−1 | 0.3 0.5 0.9 0.5 0.8 min | 1380 460 690 363 1380 min | 1 | 150 | IC50 ([1]; read-out: IC50 B/Perth wt): 4.5 nM; inactivation of Neu2 [7]: occurred slowly
3 | CC(=O)N[C@H]1C([C@H](O)[C@H](O)CO)O[C@@](F)(C(=O)O)C(F)[C@H]1O (stereo partly drawn) [DFSA, 5-Acetamido-5-deoxy-3-fluoro-D-erythro-β-L-manno-2-nonulopyranosonic acid fluoride] | 70 | 1000 | 100000 | – | – | – | – | – | – | – | 1000 | – | –
4 | CC(=O)N[C@@H]1C(N)C(F)[C@](F)(C(=O)O)OC1[C@H](O)[C@H](O)CO (some centres unmarked) [FaxAmDFSA] | 210 | 100 | 1000 | 0.0001 0.0002 0.0001 0.0003 <0.0001 min^−1 | 2.1 2.5 1.7 4.0 20.8 min | 6900 3450 6900 2300 >6900 min | 4280 | 0.0001 0.0002 0.0001 0.0003 <0.0001 min^−1 | 2.1 2.5 1.7 4.0 20.8 min | 6900 3450 6900 2300 >6900 min | 100 | 240 | –
5 | CC(=O)N[C@@H]1C(NC(=N)N)C(F)[C@](F)(C(=O)O)OC1[C@H](O)[C@H](O)CO (some centres unmarked) [FaxGuDFSA] | 54 | 10 to 100 | 100 | <0.0001 <0.0001 <0.0001 <0.0001 <0.000l min^−1 | 7.4 9.2 20.9 6.8 20.2 min | >6900 >6900 >6900 >6900 >6900 min | 350 | <0.0001 <0.0001 <0.0001 <0.0001 <0.000l min^−1 | 7.4 9.2 20.9 6.8 20.2 min | >6900 >6900 >6900 >6900 >6900 min | 10 | 70 | IC50 ([1]; read-out: IC50 B/Perth wt): 54 nM; plasma half-life after intranasal administration vs IV injection [9]: significantly longer; inactivation of Neu2 [7]: occurred slowly; bioavailability [10]: 92%
6 | Oseltamivir | – | – | – | – | – | – | – | – | – | – | – | – | IC50 [11]: 22.6 nM; IC50 [12]: 1.7 nM
7 | Zanamivir | – | – | – | – | – | – | – | – | – | – | – | – | IC50 [13]: 2.2 nM; IC50 [2]: 10 nM; IC50 [3]: 100 nM; IC50 [6]: ≤ 1 nM; IC50 ([14]; read-out: IC50 in the enzyme inhibition assay, A/Mississippi H1N1): 1.9 nM; IC50 ([14]; read-out: IC50 sH1N1/01 wt): 1.9 nM
